For the assay, the system named is Patient-derived low passage pancreatic tumor xenografts. Put plainly: Tumor regression in patient-derived pancreatic tumor xenografts. In kind it is in vivo, nude mice. The settings on record: 11 xenograft cases; ABI 30 mg/kg i.v. daily x5, GEM 100 mg/kg i.p. twice a week for 4 weeks. As to the method:
Eleven Patient-derived low passage pancreatic tumor xenografts were implanted (s.c) in nude mice. Mice with tumor size of ˜200 mm3 were randomized to four treatment groups (7-10 tumors/group) and treated with 1) Vehicle; 2) Abraxane® (ABI) 30 mg/kg once daily i.v for five consecutive days; 3) Gemcitabine (GEM) 100 mg/kg twice a week for 4 weeks i.p and 4) GEM+ABI in the above mentioned dose and frequency for 4 weeks. Tumor size was measured twice per week using a digital caliper. Number of tumors that regressed more than 50% of its initial size in each tumor xenografts were noted. Extent of stromal desmoplasia and endothelial cell content in control and treated xenografts were determined by Masson's Trichrome staining, IHC and qRTPCR.

Consider `Nc1ccn([C@@H]2O[C@H](CO)[C@@H](O)C2(F)F)c(=O)n1` [GEM, gemcitabine], for which the “cases that produced >50% regression of tumor size” value is recorded as 2 of 11.

These data come from patent publication US10660965B2, “Methods of enhancing drug delivery and effectiveness of therapeutic agents” (priority 2010, dated 2020).
